# Test system: non-cognate duplex (DNA, duplex) GGGTGAGGAGGAGGGAGATCGGTC/TGACCGATCTCCCTCCTCCTCACCC
# Assay: fluorescence titration
# Conditions: 0.025 M Tris-HCl, pH 7.5, room temperature; probe 12 µM; fluorescence only 1.5-fold up
structure (smiles),measurement,value
CN(C)CCCNC(=O)CCNC(=O)c1cc(NC(=O)c2cc(NC(=O)c3cc(NC(=O)c4cc(NC(=O)C(N)CCNC(=O)c5cc(NC(=O)c6cc(NC(=O)c7cc(NC(=O)c8nc(NC(=O)CCCNC(=O)CCc9cn(-c%10cc%11ccc(O)cc%11oc%10=O)nn9)cn8C)cn7C)cn6C)cn5C)cn4C)cn3C)cn2C)cn1C (stereo not shown),binding,weak
